Measured values taken from BindingDB's records for doi:10.1021/acs.jmedchem.0c02247 (Nanjing University of Chinese Medicine, 2021).

How the values were obtained:
[1] = Inhibition of FLT3 ITD/D835V double mutant (unknown origin) expressed in mouse BaF3 cells assessed as antiproliferative activity incubated for 72 hrs by CCK8 assay
[2] = Inhibition of TEL-FLT3 D835V mutant (unknown origin) expressed in mouse BaF3 cells assessed as antiproliferative activity incubated for 72 hrs by CCK8 assay
[3] = Inhibition of FLT3 ITD mutant (unknown origin) expressed in mouse BaF3 cells assessed as antiproliferative activity incubated for 72 hrs by CCK8 assay

Cc1c(NC(=O)CCN2CCCC2)c[nH]c1/C=C1\C(=O)Nc2ccc(F)cc21 showed an IC50 [1] of 27 nM, an IC50 [2] of 30 nM and an IC50 [3] of 13 nM.
